In test [1] the test system is PANC-1 (pancreatic carcinoma). The test is described as follows: MTT cytotoxicity assay, solid cancer cell line PANC-1. It is filed as cell-based. Conditions: Homo sapiens, PANC-1, 72 h, three days. As to the method: (§1) The compounds were assayed using the following cell lines: G361 (malignant melanoma), MCF7 (breast adenocarcinoma), PLC/PRF/5 (liver hepatoma), PANC-1 (pancreatic carcinoma) and HCT116 (colon carcinoma). All cell lines were grown in DMEM medium supplemented with fetal bovine serum and L-glutamine and maintained at 37° C. in a humidified atmosphere with 5% CO2. For cytotoxicity assays, 4000-10000 cells were seeded into each well of a 96 well plate, allowed to stabilize for at least 16 h and then tested compounds were added at various concentrations ranging from 100 to 0.01 μM in triplicates. After three days, MTT solution (5 mg/ml; Sigma, St. Louis, USA) was added to cells and medium was replaced with DMSO after five hours. The absorbance was measured at 620 nm by employing a microplate reader. MTT assays were repeated 3 times for each drug application and untreated cells were used as reference.
(Tetrazolium dyes change colour on reduction, which living cells bring about.)

Test [2] relates to HCT116 (colon carcinoma). The test is described as follows: MTT cytotoxicity assay, solid cancer cell line HCT116. Type of test: cell-based. The note with it: Homo sapiens, HCT-116, 72 h, three days. As to the method:
as §1

In test [3] the test system is HL60 (human promyelocytic leukaemia). The test is described as follows: MTT cytotoxicity assay, leukemic cell line HL60. It is filed as cell-based. The note with it: Homo sapiens, HL-60, 72 h, three days.
From the text: (§2) Cytotoxicity of the compounds is the major property determining their antileukemic efficacy in vivo. One of the parameters used, as the basis for cytotoxicity assays, is the metabolic activity of viable cells. For example, a microtiter assay, which uses (3-(4,5-dimethylthiazol-2-yl)-2,5-diphenyltetrazolium bromide (MTT), is widely used to quantitate cell proliferation and cytotoxicity. This assay is widely used in drug screening programs and in chemosensitivity testing. Because only metabolically active living cells reduce MTT to correspond purple formazan dye, these assays detect viable cells exclusively. The quantity of reduced MTT corresponds to the number of vital cells in the culture.
as §1, with “following leukemic” for “following”, “K562 (human chronic myelogenous leukaemia), HL60 (human promyelocytic leukaemia), CEM (human lymphoblastoid leukaemia), THP1 (human monocytic cell line), MV4; 11 (acute myelocytic leukemia).” for “G361 (malignant melanoma), MCF7 (breast adenocarcinoma), PLC/PRF/5 (liver hepatoma), PANC-1 (pancreatic carcinoma) and HCT116 (colon carcinoma).”, “RPMI” for “DMEM”, “2000-5000” for “4000-10000”, “of” for “of a”, “8” for “16”

The test system of test [4] is HUVECs (human umbilical vein endothelial cells). The test is described as follows: HUVEC migration (scratch) assay. It is filed as cell-based. Conditions: 16 h, read-out: Inhibition of migration (EC50). As to the method: (§3) To verify that novel compounds have anti-vascularisation properties, we analyzed their influence on the proliferation and migration of HUVECs. HUVECs (human umbilical vein endothelial cells) were purchased from Promocell (Heidelberg, Germany) and cultured in endothelial cell growth medium (ECGM, Promocell, Heidelberg, Germany) containing 10% FCS (Biochrom, Berlin, Germany). Experiments were performed using cells at passage 3.
For migration assay, confluent HUVECs were scratched with a pipette tip and immediately treated with either starvation medium M199 (serum-free, negative control; PAN Biotech) or full endothelial cell growth medium (positive control). After 16 h, cells were fixed with 3% formaldehyde and images were taken using the TILLvisON system (Lochham, Germany) connected to an Axiovert 200 microscope (Zeiss, Germany). Evaluation of pictures was made by S.CO LifeScience (Garching, Germany). Migration was quantified as the ratio of the area covered with cells and the area of the cell free wound.

Test [5] relates to caspases 3 and 7 in K562 cells. The test is described as follows: Caspase-3/7 activity assay in K562 cells. Type of test: cell-based, human. The note with it: 24 hours, FIG. 2. As to the method: Measurement of proapoptotic properties of new compounds was based on quantification of enzymatic activities of caspases-3/7. Activity of cellular caspase-3/7 was measured according to Carrasco et al., 2003, BioTechniques, 34(5): 1064-67. Briefly, the cells were incubated in a 96-well plate overnight. Next day, the compounds in appropriate concentrations were added and cells were incubated for 24 hours. After incubation, 3× caspase-3/7 assay buffer (150 mM HEPES pH 7.4, 450 mM NaCl, 150 mM KCl, 30 mM MgCl2, 1.2 mM EGTA, 1.5% Nonidet P40, 0.3% CHAPS, 30% sucrose, 30 mM DTT, 3 mM PMSF) with 150 μM Ac-DEVD-AMC as a substrate (Sigma-Aldrich) was added to the wells and plates were incubated at 37° C. […]. The caspase activity was measured using Fluoroskan Ascent microplate reader (Labsystems) at 346 nm/442 nm (excitation/emission).

The target in test [6] is T1, CDK5/p35 (Homo sapiens, UniProt Q00535).
T1 construct: purchased ProQinase GmbH
The test is described as follows: CDK5/p35 kinase inhibition (33P-ATP, histone H1). Conditions: 0.15 μM ATP. It is filed as biochemical. As to the method: CDK2/Cyclin E kinase was produced in Sf9 insect cells via baculoviral infection and purified on a NiNTA column (Qiagen). […] CDK5/p35 was purchased from ProQinase GmbH.
(§4) The reactions were stopped by adding 5 μL of 3% aq H3PO4. Aliquots were spotted onto P-81 phosphocellulose (Whatman), washed 3× with 0.5% aq H3PO4 and finally air-dried.

In test [7] the test system is MCF7 (breast adenocarcinoma). The test is described as follows: MTT cytotoxicity assay, solid cancer cell line MCF7. It is filed as cell-based. Conditions: Homo sapiens, MCF7, 72 h, three days. As for the experimental part: as §1
Test [8] concerns THP1 (human monocytic cell line). The test is described as follows: MTT cytotoxicity assay, leukemic cell line THP1. Conditions: Homo sapiens, THP-1, 72 h, three days. It is filed as cell-based.
From the text: as §2
as §1, with “following leukemic” for “following”, “K562 (human chronic myelogenous leukaemia), HL60 (human promyelocytic leukaemia), CEM (human lymphoblastoid leukaemia), THP1 (human monocytic cell line), MV4; 11 (acute myelocytic leukemia).” for “G361 (malignant melanoma), MCF7 (breast adenocarcinoma), PLC/PRF/5 (liver hepatoma), PANC-1 (pancreatic carcinoma) and HCT116 (colon carcinoma).”, “RPMI” for “DMEM”, “2000-5000” for “4000-10000”, “of” for “of a”, “8” for “16”

The test system of test [9] is CEM (human lymphoblastoid leukaemia). The test is described as follows: MTT cytotoxicity assay, leukemic cell line CEM. It is filed as cell-based. Conditions: Homo sapiens, 72 h, three days.
From the text: as §2
as §1, with “following leukemic” for “following”, “K562 (human chronic myelogenous leukaemia), HL60 (human promyelocytic leukaemia), CEM (human lymphoblastoid leukaemia), THP1 (human monocytic cell line), MV4; 11 (acute myelocytic leukemia).” for “G361 (malignant melanoma), MCF7 (breast adenocarcinoma), PLC/PRF/5 (liver hepatoma), PANC-1 (pancreatic carcinoma) and HCT116 (colon carcinoma).”, “RPMI” for “DMEM”, “2000-5000” for “4000-10000”, “of” for “of a”, “8” for “16”

Test [10] deals with MV4;11 (acute myelocytic leukemia). The test is described as follows: MTT cytotoxicity assay, leukemic cell line MV4;11. It is filed as cell-based. Conditions: Homo sapiens, MV4-11, 72 h, three days.
From the text: as §2
as §1, with “following leukemic” for “following”, “K562 (human chronic myelogenous leukaemia), HL60 (human promyelocytic leukaemia), CEM (human lymphoblastoid leukaemia), THP1 (human monocytic cell line), MV4; 11 (acute myelocytic leukemia).” for “G361 (malignant melanoma), MCF7 (breast adenocarcinoma), PLC/PRF/5 (liver hepatoma), PANC-1 (pancreatic carcinoma) and HCT116 (colon carcinoma).”, “RPMI” for “DMEM”, “2000-5000” for “4000-10000”, “of” for “of a”, “8” for “16”

The subject of test [11] is HUVECs (human umbilical vein endothelial cells). The test is described as follows: HUVEC proliferation assay (crystal violet). Conditions: Homo sapiens, HUVEC, 72 h, read-out: Inhibition of proliferation (EC50). Type of test: cell-based. As for the experimental part:
as §3
For proliferation assay, 1.5×10^3 HUVECs were cultured for 24 h. Afterwards, cells were either left untreated or treated with novel compounds for 72 h. Proliferation assay was performed using crystal violet as described previously (Koltermann et al. 2007, Cell Mol. Life Sci. 64:1715-1722).

Test [12] has as its system K562 (human chronic myelogenous leukaemia). The test is described as follows: MTT cytotoxicity assay, leukemic cell line K562. It is filed as cell-based. Conditions: Homo sapiens, K562, 72 h, three days.
From the text: as §2
as §1, with “following leukemic” for “following”, “K562 (human chronic myelogenous leukaemia), HL60 (human promyelocytic leukaemia), CEM (human lymphoblastoid leukaemia), THP1 (human monocytic cell line), MV4; 11 (acute myelocytic leukemia).” for “G361 (malignant melanoma), MCF7 (breast adenocarcinoma), PLC/PRF/5 (liver hepatoma), PANC-1 (pancreatic carcinoma) and HCT116 (colon carcinoma).”, “RPMI” for “DMEM”, “2000-5000” for “4000-10000”, “of” for “of a”, “8” for “16”

For test [13], the system named is PLC/PRF/5 (liver hepatoma). The test is described as follows: MTT cytotoxicity assay, solid cancer cell line PLC/PRF/5. Type of test: cell-based. The note with it: Homo sapiens, PLC-PRF-5, 72 h, three days. As for the experimental part: as §1
For test [14], the system named is G361 (malignant melanoma). The test is described as follows: MTT cytotoxicity assay, solid cancer cell line G361. It is filed as cell-based. Conditions: Homo sapiens, G-361, 72 h, three days. As to the method: as §1
The test system of test [15] is breast carcinoma cell line MCF7. The test is described as follows: Cell cycle profile by BrdU/propidium iodide flow cytometry. Type of test: cell-based. Conditions: asynchronously growing MCF7, 24 h, FIG. 1. As for the experimental part: Sub-confluent cells were treated with test compounds at different concentrations for 24 h. The cultures were pulse-labeled with […] 5-bromo-20-deoxyuridine (BrdU) for 30 min at 37° C. prior to harvesting. The cells were then washed in PBS, fixed with 70% ethanol, and denatured in 2 M HCl. Following neutralization, the cells were stained with anti-BrdU fluorescein-labeled antibodies, washed, stained with propidium iodide and analyzed by flow cytometry using a 488 nm laser
On the technique in general: In flow cytometry, cells or beads pass a laser one at a time.

Test [16] deals with T2, CDK2/Cyclin E (Homo sapiens, UniProt P24941).
T2 construct: made in house; host or cells: Sf9 insect cells (baculovirus)
The test is described as follows: CDK2/Cyclin E kinase inhibition (33P-ATP, histone H1). It is filed as biochemical. Conditions: 15 μM ATP. As for the experimental part: CDK2/Cyclin E kinase was produced in Sf9 insect cells via baculoviral infection and purified on a NiNTA column (Qiagen). The kinase reactions were assayed with 1 mg/mL histone H1 in the presence of 15 μM ATP, 0.05 μCi [γ-^33P]ATP and of the test compound in a final volume of 10 μL, all in a reaction buffer (60 mM HEPES-NaOH, pH 7.5, 3 mM MgCl2, 3 mM MnCl2, 3 μM Na-orthovanadate, 1.2 mM DTT, 2.5 μg/50 μl PEG20.000). CDK5/p35 was purchased from ProQinase GmbH. The kinase reactions were assayed with 1 mg/mL histone H1 in the presence of 0.15 μM ATP, 0.05 μCi [γ-^33P]ATP and of the test compound in a final volume of 10 μL, all in a reaction buffer (60 mM HEPES-NaOH, pH 7.5, 3 mM MgCl2, 3 mM MnCl2, 3 μM Na-orthovanadate, 1.2 mM DTT, 2.5 μg/50 μl PEG20.000).
as §4

T1 sequence (Q00535 whole entry): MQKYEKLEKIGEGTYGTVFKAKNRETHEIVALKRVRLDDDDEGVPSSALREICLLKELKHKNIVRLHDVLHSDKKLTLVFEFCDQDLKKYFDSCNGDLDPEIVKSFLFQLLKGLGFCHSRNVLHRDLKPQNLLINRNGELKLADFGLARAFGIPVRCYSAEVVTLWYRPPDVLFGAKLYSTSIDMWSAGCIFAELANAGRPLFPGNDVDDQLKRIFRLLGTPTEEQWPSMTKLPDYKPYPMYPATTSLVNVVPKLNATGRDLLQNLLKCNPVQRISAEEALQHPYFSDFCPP
T1 sequence (Q15078 whole entry partner): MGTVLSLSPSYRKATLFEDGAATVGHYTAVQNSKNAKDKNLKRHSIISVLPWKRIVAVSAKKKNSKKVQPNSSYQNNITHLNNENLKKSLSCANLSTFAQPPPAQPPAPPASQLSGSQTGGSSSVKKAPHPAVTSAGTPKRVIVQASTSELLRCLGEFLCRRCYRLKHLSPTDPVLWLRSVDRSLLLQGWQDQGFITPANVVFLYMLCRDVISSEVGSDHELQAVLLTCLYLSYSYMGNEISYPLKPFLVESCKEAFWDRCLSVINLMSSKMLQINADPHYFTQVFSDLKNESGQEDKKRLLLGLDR

A word on the IC50: it is the midpoint of a concentration-inhibition curve. High values mean weaker potency, low ones greater potency. `CC(C)c1[nH]nc2c(NCc3ccc(-c4ccccn4)cc3)nc(NCC(C)(C)O)nc12` [Compound 33]: the IC50 stood at 0.01 µM in test [1]; 0.04 µM in test [2]; 0.02 µM in test [3]; 0.001 µM in test [6]; 0.02 µM in [7]; 0.01 µM in [8]. Further, the IC50 came out at 0.01 µM in [9]; 0.07 µM in test [10]; 0.03 µM in test [12]; 0.05 µM in test [13]; 0.03 µM in [14]. For the same compound, the EC50 came to 0.022 µM in test [4] and 0.014 µM in test [11]. Also, in test [5], the “caspase-3/7 activity in K562 cells” value is “potent dose-dependent activation of the caspases in nanomolar concentrations”.

For the compound `CC(C)c1[nH]nc2c(NCc3ccc(-c4ccccn4)cc3)nc(N3CCSCC3)nc12` [Compound 15], the IC50 turned out to be 0.34 µM in test [1]; 0.69 µM in test [2]; 0.6 µM in [3]; 0.114 µM in test [6]; 0.53 µM in test [7]; 0.31 µM in [8]. In addition, the IC50 in test [9] came to 0.23 µM; in test [10], 0.87 µM; in test [12], 0.59 µM; in test [13], 0.2 µM; in test [14] it was 0.42 µM. Besides, the “effect on the cell cycle of MCF7” value in [15] is “potently arrested cells in S, G2 and M phases”. For the same compound, the EC50 in [11] amounted to 0.153 µM.

`CC[C@@H](CO)Nc1nc(NCc2ccc(-c3ccccn3)cc2)c2n[nH]c(C(C)C)c2n1` [Compound 84]: the “effect on the cell cycle of MCF7” value in test [15] is “potently arrested cells in S, G2 and M phases”. The same compound returned an IC50 in [16] of 0.098 µM.

Values taken from US9957273B2, “5-substituted 7- [4-(2-pyridyl)phenylmethylamino] -3-isopropylpyrazolo4,3-D]pyrimidine derivatives, use thereof as medicaments, and pharmaceutical compositions” (USTAV EXPERIMENTALNI BOTANIKY AV CR, V.V.I., priority 2015, dated 2018).
